{"source": "ChEMBL document CHEMBL1122948", "about": "“3,4-Diphenyl-1H-pyrazole-1-propanamine antidepressants” (J Med Chem, 1985)", "format_in_all_cases": "functional", "key": {"Mus musculus [1]": {"system": "Mus musculus", "experiment": "Effect on tetrabenazine-induced suppression of locomotor activity in the mouse after peroral administration"}, "Mus musculus [2]": {"system": "Mus musculus", "experiment": "Prevention of reserpine-induced ptosis in the mouse after peroral administration"}, "Rattus norvegicus [3]": {"organism": "Rattus norvegicus", "experiment": "In vitro inhibitory activity against [3H]5-HT uptake into crude synaptosomes from whole rat brain."}, "Rattus norvegicus [4]": {"organism": "Rattus norvegicus", "experiment": "In vitro inhibitory activity against [3H]-5-HT uptake into crude synaptosomes from whole rat brain."}}}
{"compound": "CN(C)CCCN1c2ccccc2CCc2ccccc21", "note": "[IMIPRAMINE]", "values": [{"measurement": "MED", "setting": "Mus musculus [1]", "result": "4 (mg of base) kg-1"}, {"measurement": "MED", "setting": "Mus musculus [2]", "result": "4 (mg of base) kg-1"}, {"measurement": "IC50", "setting": "Rattus norvegicus [3]", "result": 240, "unit": "nM"}, {"measurement": "IC50", "setting": "Rattus norvegicus [4]", "result": 3100, "unit": "nM"}]}
